# Results published in patent EP3170833B1, “20,23-PIPERIDINYL-5-O-MYCAMINOSYL-TYLONOLIDE POLYMORPHS” (Intervet International B.V., priority 2007, dated 2009).
# Experiments:
# Format in all cases: physicochemical
# [1] = Desolvation experiment: drying under vacuum
# Procedure: A weight loss of from about 8.7-10% occurred due to tBME liberation. This weight loss corresponds to 0.8-0.9 tBME molecule per molecule of 20,23-dipiperidinyl-5-O-mycaminosyl-tylonolide, assuming essentially pure 20,23-dipiperidinyl-5-O-mycaminosyl-tylonolide. Almost all the weight loss occurs above 90°C, with a sharp step when the temperature increases to greater than 100°C. Thus, the majority of the weight loss occurs at temperatures greater than the boiling point of tBME.
# Example 7. Preparation of the Form III polymorph of 20,23-dipiperidinyl-5-O-mycaminosyl-tylonolide. The Form III polymorph of 20,23-dipiperidinyl-5-O-mycaminosyl-tylonolide was prepared by drying, under vacuum at ambient temperature for 20 hours, the ethyl acetate S1 crystalline solvate of 20,23-dipiperidinyl-5-O-mycaminosyl-tylonolide (50 mg) prepared in accordance with Example 6.
# Although this procedure was successfully repeated for forming S2 solvate crystals, additional batches of S2 solvate crystals were formed by dissolving an additional amount of the Form II polymorph of 20,23-dipiperidinyl-5-O-mycaminosyl-tylonolide in tert-butyl methyl ether, seeding S2 solvate crystals from the first batch, and removing the tert-butyl methyl ether. In one experiment, the S2 crystalline solvate was prepared by dissolving the Form II polymorph of 20,23-dipiperidinyl-5-O-mycaminosyl-tylonolide (245.7 mg) in tert-butyl methyl ether (0.5 ml), and slowly evaporating a portion of the solvent at ambient temperature. After no crystals formed, additional tert-butyl methyl ether was added, followed by seeding S2 solvate crystals from the first batch. The solvent was then allowed to evaporate completely. The FT-Raman spectrum for these crystals was approximately identical to the FT-Raman spectrum for the crystals from the first batch. […] The FT-Raman spectra of the crystals after each drying step coincided to the FT-Raman spectrum from the first batch.
# [2] = Dynamic vapor sorption (DVS); conditions: 25°C; for maximum water uptake: at 95% relative humidity
# Procedure: Dynamic vapor sorption ("DVS") measurements were obtained with a Projekt Messtechnik SPS11-100n water vapor sorption analyzer. The samples were placed into aluminum crucibles on a microbalance, and allowed to equilibrate at 25°C and 50% relative humidity before initiating the following pre-defined humidity program at 25°C: 50-95-0-50% relative humidity, and scanning with a 5% change in relative humidity per hour and with iso-humid equilibration periods at extreme values.
# [3] = Thermogravimetry (TG / TG-FTIR): thermal stability; conditions: N2 atmosphere, heating rate of 10°C/min
# Procedure: Measurements of thermogravimetry coupled to Fourier transform infrared spectroscopy ("TG-FTIR") were obtained using a Netzsch Thermo-Microbalance TG 209 with a Bruker Vector 22 FT-IR Spectrometer using an aluminum crucible (with micro-hole or open), N2 atmosphere, heating rate of 10°C/min, and temperature range of 25-250°C.
# Thermogravimetry ("TG") measurements were obtained with a Perkin Elmer TGS 2 thermogravimetric analyzer using an aluminum crucible (open), N2 atmosphere, heating rate of 10°C/min, and temperature range of 25-500°C.
# Solubility in tBME = conditions: solvent tBME
compound,measurement,setting,value
"CCC1OC(=O)CC(O)C(C)C(OC2OC(C)C(O)C(N(C)C)C2O)C(CCN2CCCCC2)CC(C)C(=O)C=CC(C)=CC1CN1CCCCC1 (stereo not drawn) [ethyl acetate S1 crystalline solvate, 20,23-dipiperidinyl-5-O-mycaminosyl-tylonolide]",conversion by vacuum drying,[1]; vacuum drying at ambient temperature,readily converted into the Form III polymorph
"CCC1OC(=O)CC(O)C(C)C(OC2OC(C)C(O)C(N(C)C)C2O)C(CCN2CCCCC2)CC(C)C(=O)C=CC(C)=CC1CN1CCCCC1 (stereo not drawn) [Form III polymorph, 20,23-dipiperidinyl-5-O-mycaminosyl-tylonolide]",water uptake,[2]; between 70 and 85% relative humidity,about 6%
same,temperature at which decomposition began,[3]; TG,greater than 270 °C
"CCC1OC(=O)CC(O)C(C)C(OC2OC(C)C(O)C(N(C)C)C2O)C(CCN2CCCCC2)CC(C)C(=O)C=CC(C)=CC1CN1CCCCC1 (stereo not drawn) [Form II polymorph, 20,23-dipiperidinyl-5-O-mycaminosyl-tylonolide]",maximum water uptake,[2],about 2 % (by weight)
same,temperature at which decomposition began,[3]; TG-FTIR,greater than 220 °C
"CCC1OC(=O)CC(O)C(C)C(OC2OC(C)C(O)C(N(C)C)C2O)C(CCN2CCCCC2)CC(C)C(=O)C=CC(C)=CC1CN1CCCCC1 (stereo not drawn) [Form I polymorph, 20,23-dipiperidinyl-5-O-mycaminosyl-tylonolide]",maximum water uptake,[2],less than 1 % (by weight)
"CC[C@H]1OC(=O)C[C@@H](O)[C@H](C)[C@@H](O[C@@H]2O[C@H](C)[C@@H](O)[C@H](N(C)C)[C@H]2O)[C@@H](CCN2CCCCC2)C[C@@H](C)C(=O)/C=C/C(C)=C/[C@@H]1CN1CCCCC1 [tBME S2 crystalline solvate, 20,23-dipiperidinyl-5-O-mycaminosyl-tylonolide]",solubility,Solubility in tBME,40 to 50 mg/mL
same,stability,[1]; 60°C at 1 mbar (absolute) for 1 day,exhibits stability
same,loss of solvent upon drying under vacuum,[1]; at both ambient temperature and 70°C,no loss of solvent was observed
